Entries after “also recorded” stand apart in the source; their conditions may differ. Like-named read-outs stand apart in the source and are kept apart here.

Series [1] is classed as physicochemical. Conditions: octanol/distilled water (pH 5.5), mean ± StD. As for the experimental part: Lipophilicity of the obtained 2,4-DNP derivatives was measured by octanol–water equilibrium method. Before the experiment, we mixed octanol and water in a flask, shook it vigorously, and then waited for the two phases separation. After reaching of equilibrium, the two phases are mutually saturated with one another. Next, 0.5 mg of each test compound was dissolved in 1 mL of octanol phase, and then 1 mL of distillated water phase was added (pH 5.5) and properly stirred for 1 min three times. The mixture was incubated under vigorous stirring for 1 h. Next, the mixture was centrifugated to separate octanol–water phases. The concentration of the compound was determined in octanol and water using HPLC method. The octanol–water partition coefficient was estimated as follows:(1) LogP=Log[C]octanol/[C]water
Concentration of 2,4-DNP and its esters was measured using high-performance liquid chromatography (HPLC) (Knauer Smart line, Berlin, Germany) with UV-detector and a reversed-phase shim-pack 100-5-C18 column (Kromasil, […], particle size 5 μm). The mobile phase was a mixture of acetonitrile and 0.1% citric acid water solution (60/40, v/v). The mobile phase flow-rate was 0.8 mL/min, the injection volume was […], and the detection wavelength was set at 275 nm. Chromatograms were analyzed using ChromGate version 3.3.2 software (Berlin, Germany). The retention time is 4.5 min for 2,4-DNP and 6.5 min for esters.

For series [2], the system named is 4T1-Luc cells. Nature of the series: cells. The format is cell-based, murine. The following applies: Mus musculus, read-out: IC50 (cytotoxicity). How it is done: (§1) Murine breast cancer cell line expressing luciferase (4T1-Luc) and hepatocytes isolated from the normal liver of a 3-month-old mouse (AML12) were purchased from ATCC, (CRL-2539-LUC2 and CRL-2254). The cells were cultivated in RPMI 1640 or DMEM-F12 with 10% FBS, 4.5 g/L glucose, 100 U/mL penicillin, 100 µg/mL streptomycin and 0.25 µg/mL Gibco amphotericin at 37 °C, 5% CO2.
(§2) 4T1-Luc or AML12 cells were seeded in a 96-well plate (1 × 10^4 cells/well) in 200 µL/well of complete RPMI or DMEM-F12 medium and incubated at 37 °C with 5% CO2 for 48 h. Then, the medium was replaced with 100 µL/well RPMI or DMEM-F12 medium in the absence (control) or presence of various amounts of the tested compounds and incubated at 37 °C with 5% CO2 for 24 h; 10 µL/well WST-1 solution (CELLPRO-RO Roche, St. Louis, MO, USA) was added to each well and incubated under culture conditions for 2 h. The absorbance of the samples was measured at 450 nm.

A further series in a line: in vitro. It is filed as cell-based, mouse. Conditions: mouse; AML12, 24 h incubation, WST-1, free compounds in 1% DMSO; read-out: IC50 (cytotoxicity). As for the experimental part:
as §1, §2

The target of the next series is luciferase (Photinus pyralis, UniProt P08659). Nature of the series: Control: addition to the luciferin–luciferase mixture. The following applies: 200 µM added to the luciferin–luciferase mixture; data are not presented. The format is biochemical.
The next series relates to AML12 cells. The series can be described thus: in vitro. The following applies: AML12, 24 h incubation, WST-1, free compounds in 1% DMSO; read-out: IC50 (cytotoxicity). The format is cell-based, mouse. As for the experimental part:
as §1, §2

Series [3] deals with 4T1-Luc cells. The format is cell-based, murine. Conditions: 200 µM, 1% DMSO; for ATP synthesis inhibition (decrease of luminescence): free compounds, 2 h and 4 h. As for the experimental part: ATP synthesis in real time in vitro was monitored by modified luciferin–luciferase assay using 4T1-Luc cells expressing luciferase. Briefly, 4T1-Luc cells were seeded in black 96-well plates (Greiner, France) (1 × 10^4 cells/well) 48 h before the experiment. Cell medium was replaced with the mixtures (150 µL/well) of D-luciferin (150 µg/mL, saturating concentration) alone (control) and with examined substance (200 µM of free 2,4-DNP or its derivatives or their liposomal forms) in RPMI 1640 medium (10% FBS, 4.5 g/L glucose, 100 U/mL penicillin, 100 µg/mL streptomycin и 0.25 µg/mL Gibco amphotericin), plate was put into the Luminometer chamber (EnSpire multimode plate reader, Perkin Elmer, USA), and kinetic of luciferin–luciferase reaction was detected at 37 °C (flashes/time 0.1 s). 2,4-DNP esters were dissolved in DMSO before the use. The total concentration of DMSO in final solution per well was 1%.
The inhibition effect was expressed as (3) Decrease of luminescence=[RLU]max−[RLU]t/[RLU]max×100%, where [RLU]max—relative luminescence units at the maximum of the kinetic profile; [RLU]t—relative luminescence units at certain time point.

The conditions of series [4]: pH 7.4.
Protocol: Procedure: All samples were dispersed in 10 mM PBS (pH = 7. 4). Then the aliquots were incubated at a room tempera-
ture and at 65 °C for 1 h. After that we made several TLC for each sample representing heated and non-heated sub-

Chain of luciferase (P08659 whole entry): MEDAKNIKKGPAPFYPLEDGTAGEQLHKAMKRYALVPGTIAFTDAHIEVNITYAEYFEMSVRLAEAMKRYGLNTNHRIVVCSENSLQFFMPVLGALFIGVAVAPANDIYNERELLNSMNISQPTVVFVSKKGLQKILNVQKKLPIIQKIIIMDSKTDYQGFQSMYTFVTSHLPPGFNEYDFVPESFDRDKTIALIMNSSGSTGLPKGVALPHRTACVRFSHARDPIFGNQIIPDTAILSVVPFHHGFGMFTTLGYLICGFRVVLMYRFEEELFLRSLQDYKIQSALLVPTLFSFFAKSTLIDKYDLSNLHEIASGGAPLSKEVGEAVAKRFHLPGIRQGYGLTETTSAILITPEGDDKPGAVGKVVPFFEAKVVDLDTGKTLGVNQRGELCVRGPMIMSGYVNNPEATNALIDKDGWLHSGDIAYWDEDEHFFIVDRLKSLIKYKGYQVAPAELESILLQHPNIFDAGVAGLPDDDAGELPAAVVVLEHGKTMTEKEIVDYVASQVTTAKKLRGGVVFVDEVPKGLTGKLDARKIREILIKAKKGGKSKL

`O=[N+]([O-])c1ccc(O)c([N+](=O)[O-])c1` [2,4-DNP, 2,4-dinitrophenol] came in with a LogPoct in series [1] of 1.61 ± 0.30. In the series with 4T1-Luc cells [2] (24 h), the IC50 was around 400 µM. For the same compound, in the series “in vitro”, the IC50 at 24 h is 500 to 600 µM. Also, the Luciferase activity entry on luciferase is reported as “did not influence the luciferase activity”.
As to `CCC(=O)Oc1ccc([N+](=O)[O-])cc1[N+](=O)[O-]` [2,4-DNP-C3, 2,4-Dinitrophenol Propionic Acid Ester], in series [1], the LogPoct is 1.91 ± 0.24. Further, the IC50 with AML12 cells is around 200 µM. Moreover, the “ATP synthesis inhibition (decrease of luminescence)” value with 4T1-Luc cells [3] was “higher inhibition effects in comparison to the free 2,4-DNP”. Besides, the “Ester stability (hydrolysis)” value in series [4] is given as “most unstable ester”.
`CCCCCC(=O)Oc1ccc([N+](=O)[O-])cc1[N+](=O)[O-]` [2,4-DNP-C6, 2,4-Dinitrophenol Caproic Acid Ester]: in series [1], the LogPoct is on record as 3.07 ± 0.31. The IC50 in the series with AML12 cells was around 200 µM. Further, in the series on 4T1-Luc cells [3], the “ATP synthesis inhibition (decrease of luminescence)” value was “higher inhibition effects in comparison to the free 2,4-DNP; also recorded: sustained inhibition of ATP synthesis”.
Turning to `CCCCCCCCCCCCCCCC(=O)Oc1ccc([N+](=O)[O-])cc1[N+](=O)[O-]` [2,4-DNP-C16, 2,4-DNP Palmitic Acid Ester], the LogPoct in series [1] was 5.18 ± 0.79. The IC50 in the series on 4T1-Luc cells [2] (24 h incubation, WST-1, free compounds in 1% DMSO) was 100 to 150 µM; in the series “in vitro”, around 200 µM. In addition, the “ATP synthesis inhibition (decrease of luminescence)” value with 4T1-Luc cells [3] is given as “neglectable decrease in the ATP level”.
Take `CCCCCC(=O)O` [caproic acid, Hexanoic acid, reference compound]: the “ATP level after free carboxylic acids” value with 4T1-Luc cells [3] is “did not show an increase in the ATP level”.
For `CCCCCCCCCCCCCCCC(=O)O` [palmitic acid, Palmitic acid, reference compound], in the series on 4T1-Luc cells [3], the “ATP level after free carboxylic acids” value is recorded as “did not show an increase in the ATP level”.
On the same count and under the same terms, in the case of `CCC(=O)O` [propionic acid, Propionic acid, reference compound] it was “did not show an increase in the ATP level”.
